Measurements: ChEMBL document CHEMBL3994565 (Medchemcomm, 2016)
Activity calls are given as the source filed them. The calls are words filed in the database; no cut-off is given here.

Legend:
[1] = Cytotoxicity against MDCK cells assessed as cell viability at 100 uM after 40 hrs by CellTiter-Glo assay relative to control; assay type: cell-based, Canis lupus familiaris; details: dog, read-out: Activity
[2] = Antiviral activity against Influenza A virus (A/WSN/33(H1N1)) infected in MDCK cells assessed as inhibition of virus-induced cytopathic effect at 100 uM incubated for 40 hrs by CellTiter-Glo assay; assay type: functional, Influenza A virus (A/WSN/1933(H1N1))
[3] = Selectivity index, ratio of CC50 against uninfected MDCK cells to IC50 against Influenza A virus (A/WSN/33(H1N1)) infected MDCK cells; assay type: toxicity, cell-based; details: dog; read-out: Ratio CC50/IC50
[4] = Antiviral activity against Influenza A virus (A/WSN/33(H1N1)) infected in MDCK cells assessed as inhibition of viral production up to 2 hrs post-infection by plaque formation assay; assay type: functional, Influenza A virus (A/WSN/1933(H1N1))
[5] = test system: Influenza A virus (A/WSN/1933(H1N1)); assay: Antiviral activity against Influenza A virus (A/WSN/33(H1N1)) infected in MDCK cells assessed as inhibition of viral production after 2 hrs post-infection by plaque formation assay; assay type: functional, cell-based
[6] = test system: Influenza A virus (A/WSN/1933(H1N1)); assay: Inhibition of Influenza A virus (A/WSN/33(H1N1)) neuraminidase activity using 4-MUNANA as substrate incubated for 30 mins by fluorescence spectrophotometry relative to control
[7] = molecular target: Hemagglutinin (Influenza A virus) (UniProt B4URE7); assay: Inhibition of Influenza A virus (A/WSN/33(H1N1)) hemagglutinin-mediated aggregation of chicken erythrocytes after 30 mins; details: Influenza A virus (A/WSN/1933(H1N1))
Chain of Hemagglutinin (Influenza A virus) (B4URE7 as listed by the source): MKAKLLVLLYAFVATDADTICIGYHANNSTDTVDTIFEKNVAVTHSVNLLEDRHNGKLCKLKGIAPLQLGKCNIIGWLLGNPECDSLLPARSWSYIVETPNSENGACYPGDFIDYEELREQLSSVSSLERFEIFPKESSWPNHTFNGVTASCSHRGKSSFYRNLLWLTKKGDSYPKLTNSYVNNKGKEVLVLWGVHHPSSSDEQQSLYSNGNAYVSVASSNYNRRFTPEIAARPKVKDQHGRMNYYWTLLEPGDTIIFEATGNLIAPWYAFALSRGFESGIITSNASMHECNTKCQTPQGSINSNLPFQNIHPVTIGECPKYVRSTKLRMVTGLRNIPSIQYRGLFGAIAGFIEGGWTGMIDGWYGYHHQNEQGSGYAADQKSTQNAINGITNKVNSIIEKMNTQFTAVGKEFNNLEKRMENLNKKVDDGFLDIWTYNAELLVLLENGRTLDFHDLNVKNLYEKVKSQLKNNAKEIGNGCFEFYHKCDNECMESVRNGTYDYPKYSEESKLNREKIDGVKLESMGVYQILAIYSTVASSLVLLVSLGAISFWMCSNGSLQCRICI

[8] = Binding affinity to recombinant Influenza virus hemagglutinin by surface plasmon resonance analysis; design: species or system unidentified influenza virus; details: read-out: Kd(app)
[9] = Cytotoxicity against MDCK cells assessed as decrease in cell viability after 40 hrs by CellTiter-Glo assay; assay type: cell-based, Canis lupus familiaris; details: dog
[10] = Antiviral activity against Influenza A virus (A/WSN/33(H1N1)) infected in MDCK cells assessed as inhibition of virus-induced cytopathic effect incubated for 40 hrs by CellTiter-Glo assay; assay type: functional, cell-based, Influenza A virus (A/WSN/1933(H1N1))
[11] = Antiviral activity against Influenza A virus (A/WSN/33(H1N1)) infected in MDCK cells assessed as inhibition of virus-induced cytopathic effect at 50 uM incubated for 40 hrs by CellTiter-Glo assay; assay type: functional, Influenza A virus (A/WSN/1933(H1N1))
[12] = Cytotoxicity against MDCK cells assessed as cell viability at 50 uM after 40 hrs by CellTiter-Glo assay; assay type: cell-based, Canis lupus familiaris; details: dog, read-out: Activity
[13] = Cytotoxicity against MDCK cells assessed as cell viability at 100 uM after 40 hrs in presence of sialic acid by CellTiter-Glo assay; assay type: cell-based, Canis lupus familiaris; details: dog, read-out: Activity
[14] = Cytotoxicity against MDCK cells assessed as cell viability at 100 uM after 40 hrs in presence of betulinic acid by CellTiter-Glo assay; assay type: cell-based, Canis lupus familiaris; details: dog, read-out: Activity
[15] = Antiviral activity against Influenza A virus (A/WSN/33(H1N1)) infected in MDCK cells assessed as inhibition of virus-induced cytopathic effect at 10 uM incubated for 40 hrs by CellTiter-Glo assay; assay type: functional, Influenza A virus (A/WSN/1933(H1N1))
[16] = Cytotoxicity against MDCK cells assessed as cell viability at 10 uM after 40 hrs by CellTiter-Glo assay; assay type: cell-based, Canis lupus familiaris; details: dog, read-out: Activity

Row | SMILES | viability at 40 h, 100 µM [1] [%] | inhibition at 100 µM [2] [%] | selectivity ratio [3] | inhibition [6] | Kd [8] [µM] | CC50 at 40 h [9] [µM] | IC50 [10] [µM] | other results
1 | C=C(C)[C@@H]1CC[C@]2(C(=O)OCCO[C@]3(C(=O)OC)C[C@H](O)[C@@H](NC(C)=O)[C@H]([C@H](O)[C@H](O)CO)O3)CC[C@]3(C)[C@H](CC[C@@H]4[C@@]5(C)CC[C@H](O)C(C)(C)[C@@H]5CC[C@]43C)[C@@H]12 | 98.3 | 94.8 | > 12.1 | inactive | 17 | > 500 | 41.2 | inhibition (INH) [4]: >75%; inhibition [5]: inactive; inhibition [7]: Dose-dependent effect
2 | CCOC(=O)C1=C[C@@H](OC(CC)CC)[C@H](NC(C)=O)[C@@H](N)C1 [OSELTAMIVIR] |  |  | > 10.8 |  |  | > 500 | 46.5 | inhibition at 50 µM [11]: 72.6%; viability at 40 h, 50 µM [12]: 98.5%
3 | C=C(C)[C@@H]1CC[C@]2(C(=O)O)CC[C@]3(C)[C@H](CC[C@@H]4[C@@]5(C)CC[C@H](O)C(C)(C)[C@@H]5CC[C@]43C)[C@@H]12 [BETULINIC ACID] | 22.8 |  |  |  | 30 |  |  | viability at 40 h, 100 µM [13]: 20.3%
4 | C=C(C)[C@@H]1CC[C@]2(C(=O)OCCO[C@]3(C(=O)OC)C[C@H](OC(C)=O)[C@@H](NC(C)=O)[C@H]([C@H](OC(C)=O)[C@@H](COC(C)=O)OC(C)=O)O3)CC[C@]3(C)[C@H](CC[C@@H]4[C@@]5(C)CC[C@H](O)C(C)(C)[C@@H]5CC[C@]43C)[C@@H]12 | 80.7 | 86.6 | 2.9 | inactive |  | 178 | 61.3 | 
5 | CC(=O)N[C@H]1[C@H]([C@H](O)[C@H](O)CO)O[C@@](O)(C(=O)O)C[C@@H]1O | 96.4 | 2 |  |  | 692 |  |  | viability at 40 h, 100 µM [14]: 20.3%
6 | COc1cc(/C=C/C(=O)CC(=O)/C=C/c2ccc(O)c(OC)c2)ccc1O [CURCUMIN] |  |  | 7.2 |  |  | 48.3 | 6.7 | inhibition at 10 µM [15]: 69.3%; viability at 40 h, 10 µM [16]: 98.7%
